# Measured values taken from PMC10419185 (International Journal of Molecular Sciences, 2023).
# Counter-ions that a name gives are not always drawn. Like-named read-outs stand apart in the source and are kept apart here.
# How the values were obtained:
# [1] = test system: scrapie-infected mice; settings: cited from earlier work
# [2] = test system: 263K scrapie-infected hamster cerebellar tissue slices; assay type: cell-based, golden hamster; settings: for PrPSc levels, comparison of c-Abl tyrosine kinase inhibitors: 10 and 20 μM for 5 weeks (Supplementary Figure S3)
# [3] = hamster, in vivo; for T1/2: male, golden
# [4] = in vivo; settings: male, hamster; for half-life / Tmax: po; for half-life: T1/2; for Kp: B/P ratio (%)
# [5] = test system: ZW13-2-139A cells; assay type: cell-based, mouse
# [6] = test system: 22L scrapie-infected Tga20 cerebellar tissue slices; assay type: cell-based, Tga20 mouse; settings: 25 μM, slices cultured for 3 or 5 weeks
# [7] = test system: ZW13-2-22L cells; assay type: cell-based, mouse
# [8] = test system: ZW13-2, ZW13-2-22L and ZW13-2-139A cells
# [9] = test system: 263K scrapie strain; assay type: in vivo, golden hamster; settings: 100 mg/kg IG
# [10] = mouse, in vivo; cited from earlier work
# [11] = test system: 263K scrapie strain; assay type: in vivo, golden hamster
# [12] = test system: RML-infected hemizygous Tg37+/- mice; settings: mouse, in vivo; cited from earlier work
compound,measurement,setting,value
"Cc1ccc(NC(=O)c2ccc(CN3CCN(C)CC3)cc2)cc1Nc1nccc(-c2cccnc2)n1 [imatinib, imatinib mesylate]",survival times of scrapie-infected mice,[1],prolongs the survival times of scrapie-infected mice
same,"PrPSc levels, comparison of c-Abl tyrosine kinase inhibitors",[2],had no effect
"Cc1cn(-c2cc(NC(=O)c3ccc(C)c(Nc4nccc(-c5cccnc5)n4)c3)cc(C(F)(F)F)c2)cn1 [nilotinib, nilotinib hydrochloride monohydrate]","PrPSc levels, comparison of c-Abl tyrosine kinase inhibitors",[2],reduced PrP^Sc levels
same,T1/2,"[3]; po, 60 mg/kg",1.4 ± 0.3 h
same,T1/2,"[3]; po, 100 mg/kg",1.4 ± 0.7 h
same,half-life,"[4]; golden, 60 mg/kg",1 ± 0.4 h
same,half-life,"[4]; golden, 100 mg/kg",1.2 ± 0.2 h
"Cc1cn(-c2cc(NC(=O)c3ccc(C)c(Nc4nccc(-c5cnccn5)n4)c3)cc(C(F)(F)F)c2)cn1 [radotinib, Radotinib hydrochloride]",PrPSc propagation,[2]; 0–40 μM for 5 weeks,reduced PrP^Sc propagation in 263K scrapie-infected hamster cerebellar tissue slices in a dose-dependent manner
same,"PrPSc propagation, treatment in the final 2 weeks","[2]; 10 μM, final 2 weeks of 5-week culture",effectively inhibited PrP^Sc propagation
same,"PrPSc propagation, one week of treatment","[2]; 10 μM, final one week of 5-week culture",did not reduce PrP^Sc propagation
same,"PrPSc levels, comparison of c-Abl tyrosine kinase inhibitors",[2],reduced PrP^Sc accumulation
same,"levels of PrPSc, later treatment","[2]; 10–40 μM, 2 weeks without drug then final 3 weeks with radotinib",dramatically reduced the levels of PrP^Sc
same,PrPSc levels,[5],mild reduction in PrP^Sc levels
same,PrPSc propagation,[6],reduced PrP^Sc propagation
same,PrPSc levels,[7],mild reduction in PrP^Sc levels
same,blood–brain barrier crossing in hamsters,[3],effectively crosses the BBB in hamsters
same,"Tmax Median (range, h)","[3]; po, 100 mg/kg",6.0 ± 1.15 (6.0–8.0) h
same,cell viability,[8],No decrease in viability
same,Kp,"[4]; golden, 60 mg/kg, AUClast",0.137 ± 0.021
same,Kp,"[4]; golden, 60 mg/kg, Cmax",0.137 ± 0.023
same,Kp,"[4]; golden, 100 mg/kg, AUClast",0.232 ± 0.155
same,Kp,"[4]; golden, 100 mg/kg, Cmax",0.149 ± 0.014
same,Tmax,"[4]; golden, 60 mg/kg",6 h
same,Tmax,"[4]; golden, 100 mg/kg",6 h
same,half-life,"[4]; golden, 100 mg/kg",3.3 h
same,Kp,"[4]; 60 mg/kg, AUClast",0.137 ± 0.021
same,Kp,"[4]; 100 mg/kg, AUClast",0.232 ± 0.155
same,"PrPSc levels in the brains, Western blot",[9]; hamsters sacrificed at 146 dpi,markedly decreased
same,"PrPSc levels in the brains, Western blot",[9]; hamsters that died naturally,also high
same,"total PrP and PK-resistant PrPSc levels in the brains, immunohistochemical staining","[9]; sacrificed on 146 dpi, compared to control-treated infected hamsters",definitely lower
same,blood–brain barrier crossing,[10],effectively crosses the blood–brain barrier
same,"survival time, range","[11]; 30 mg/kg IG, n = 8",140–154 dpi
same,mean survival time,"[11]; 30 mg/kg IG, n = 8, p = 0.05848",145.1 ± 5.3 dpi
same,"survival time, range","[11]; 60 mg/kg IG, n = 8",112–208 dpi
same,mean survival time,"[11]; 60 mg/kg IG, n = 8, p = 0.03022",161.0 ± 34.8 dpi
same,survival time,"[11]; 100 mg/kg IG for the initial 10 weeks (10W-initial), n = 10, p = 0.0446",149.6 ± 25.3 dpi
same,"survival time, range","[11]; 100 mg/kg IG for the initial 10 weeks, n = 10",112–191 dpi
same,"survival time, range","[11]; 100 mg/kg IG once a day, 6 days a week, n = 12",124–223 dpi
same,survival time,"[11]; 100 mg/kg IG once a day, 6 days a week, n = 12, p = 0.00217 vs vehicle (135.1 ± 9.9)",159.3 ± 28.6 dpi
same,mean survival time,"[11]; 100 mg/kg IG started 4 weeks postinoculation (4W-post), n = 9, p = 0.02333",158.0 ± 31.9 dpi
same,"survival time, range","[11]; 100 mg/kg IG started 4 weeks postinoculation, n = 9",126–210 dpi
same,mean survival time,"[11]; 100 mg/kg IG started 8 weeks postinoculation (8W-post), n = 9, p = 0.08559",146.9 ± 23.7 dpi
same,"survival time, range","[11]; 100 mg/kg IG started 8 weeks postinoculation, n = 9",114–181 dpi
same,survival times (abstract),"[11]; 100 mg/kg intragastrically, nontreated 135 ± 9.9 days",159 ± 28.6 days
same,"survival time, range","[11]; 200 mg/kg IG, n = 8",112–210 dpi
same,mean survival time,"[11]; 200 mg/kg IG, n = 8, p = 0.01944",157.0 ± 33.9 dpi
same,survival time,"[11]; intraperitoneal route, 10 mg/kg/day 6 days a week, n = 6, no significant difference",155 ± 50 dpi
O=C(CC(=O)c1ccccc1)c1ccccc1 [dibenzoylmethane],survival,[12],significantly prolong survival without reducing the PrP^Sc levels
O=c1n(CCCN2CCN(c3cccc(Cl)c3)CC2)nc2ccccn12 [trazodone hydrochloride],survival,[12],significantly prolong survival without reducing the PrP^Sc levels
